What was measured:
Type in all cases: cell-based
[1] = target: T1, wild-type human cardiac sodium channel, hNav1.5 (Homo sapiens, UniProt Q14524); assay: Late INa screening assay (QPatch whole cell patch clamp, HEK293)
In short: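 HEK293 stably expressing hNav1.5 without beta subunits, recorded at 23-25° C. Late current was induced by 10 μM tefluthrin. Cells were depolarized from −120 mV to −20 mV for 250 ms at 0.1 Hz. Compounds were tested at 1 μM in extracellular solution, with baseline taken in 0Na-ECF; output is percent block of late INa.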

[2] = target: T2, hNav 1.1 sodium channel isoform (Homo sapiens, UniProt P35498); assay: hNav1.1 whole-cell voltage-clamp assay; settings: % Inhibition at 1 uM; use-dependent block, 10 Hz; read-out: NAV1.1* UDB-10HZ
T2 construct: expressed in transfected cells; host or cells: HEK293, transient transfection (Qiagen Superfect)

[3] = target: T3, hNav 1.2 sodium channel isoform (Homo sapiens, UniProt Q99250); assay: hNav1.2 whole-cell voltage-clamp assay; settings: use-dependent block, 10 Hz, read-out: NAV1.2* UDB-10HZ
T3 construct: expressed in transfected cells
T3 sequence (Q99250 whole entry, canonical isoform): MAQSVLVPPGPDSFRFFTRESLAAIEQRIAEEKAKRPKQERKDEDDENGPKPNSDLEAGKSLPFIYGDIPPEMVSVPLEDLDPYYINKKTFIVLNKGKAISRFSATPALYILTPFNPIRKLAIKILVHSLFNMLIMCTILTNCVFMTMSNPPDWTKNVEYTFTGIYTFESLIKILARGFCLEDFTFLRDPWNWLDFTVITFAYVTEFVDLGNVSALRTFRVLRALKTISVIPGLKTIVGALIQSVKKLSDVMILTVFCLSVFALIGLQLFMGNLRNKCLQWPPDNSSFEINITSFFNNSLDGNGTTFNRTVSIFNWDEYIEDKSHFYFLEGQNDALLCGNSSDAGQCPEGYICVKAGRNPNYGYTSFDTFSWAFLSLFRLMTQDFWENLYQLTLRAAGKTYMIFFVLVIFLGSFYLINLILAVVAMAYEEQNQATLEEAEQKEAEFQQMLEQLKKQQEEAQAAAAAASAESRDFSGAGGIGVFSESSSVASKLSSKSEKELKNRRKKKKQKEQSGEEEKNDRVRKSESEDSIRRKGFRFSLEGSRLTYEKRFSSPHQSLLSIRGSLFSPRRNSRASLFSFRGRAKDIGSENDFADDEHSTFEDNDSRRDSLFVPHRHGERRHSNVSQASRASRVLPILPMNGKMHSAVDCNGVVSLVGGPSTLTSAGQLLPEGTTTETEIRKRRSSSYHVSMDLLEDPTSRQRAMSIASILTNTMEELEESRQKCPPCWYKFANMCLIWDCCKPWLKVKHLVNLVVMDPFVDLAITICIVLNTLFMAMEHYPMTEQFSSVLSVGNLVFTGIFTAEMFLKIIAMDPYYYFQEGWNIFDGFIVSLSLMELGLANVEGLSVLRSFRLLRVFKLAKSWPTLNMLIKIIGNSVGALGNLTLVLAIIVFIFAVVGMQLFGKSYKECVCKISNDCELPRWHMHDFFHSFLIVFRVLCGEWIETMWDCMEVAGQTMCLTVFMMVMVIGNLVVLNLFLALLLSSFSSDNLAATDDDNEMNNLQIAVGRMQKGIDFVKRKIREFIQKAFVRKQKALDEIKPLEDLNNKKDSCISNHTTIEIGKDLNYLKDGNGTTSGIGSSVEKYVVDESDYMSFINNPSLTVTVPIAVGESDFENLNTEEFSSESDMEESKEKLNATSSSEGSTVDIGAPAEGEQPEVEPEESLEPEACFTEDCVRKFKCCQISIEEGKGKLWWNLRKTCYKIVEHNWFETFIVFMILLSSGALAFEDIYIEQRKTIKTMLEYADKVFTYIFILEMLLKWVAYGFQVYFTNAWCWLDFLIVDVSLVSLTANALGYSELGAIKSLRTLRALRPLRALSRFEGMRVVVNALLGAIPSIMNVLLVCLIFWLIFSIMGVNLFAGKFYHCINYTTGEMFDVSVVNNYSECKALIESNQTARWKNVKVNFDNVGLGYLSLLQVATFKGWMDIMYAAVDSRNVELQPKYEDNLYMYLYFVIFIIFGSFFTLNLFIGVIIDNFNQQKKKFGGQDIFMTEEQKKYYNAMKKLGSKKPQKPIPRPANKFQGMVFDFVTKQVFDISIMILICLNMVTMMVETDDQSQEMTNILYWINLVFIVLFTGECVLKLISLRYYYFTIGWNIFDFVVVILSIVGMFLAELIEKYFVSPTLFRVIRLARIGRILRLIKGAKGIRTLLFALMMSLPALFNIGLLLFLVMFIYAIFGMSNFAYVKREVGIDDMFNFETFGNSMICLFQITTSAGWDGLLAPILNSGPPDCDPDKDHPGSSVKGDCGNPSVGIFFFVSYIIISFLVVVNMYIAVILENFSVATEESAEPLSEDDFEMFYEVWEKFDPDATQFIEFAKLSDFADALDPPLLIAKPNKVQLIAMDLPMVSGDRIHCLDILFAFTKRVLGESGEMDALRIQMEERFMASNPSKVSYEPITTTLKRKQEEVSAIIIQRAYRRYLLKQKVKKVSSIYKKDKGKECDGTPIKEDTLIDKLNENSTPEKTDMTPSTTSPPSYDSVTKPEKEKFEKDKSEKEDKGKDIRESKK
Method: Wild-type (WT) cDNA stably transfected in Chinese hamster ovary (CHO) cells is used to record INa. Unless otherwise noted, all reagents are purchased from Sigma-Aldrich (St Louis, Mo., U.S.A.).
Whole-cell voltage-clamp recordings are used to measure the biophysical properties of WT. […] Cells are allowed to stabilize for 10 min after establishment of the whole-cell configuration before current is measured. Series resistance is compensated 90% to assure that the command potential is reached within microseconds with a voltage error<2 mV. Leak currents are subtracted by using an online P/4 procedure and all currents are low-pass Bessel filtered at 5 kHz and digitized at 50 kHz.
For clarity, representative ramp currents are low pass filtered off-line at 50 Hz. Specific voltage-clamp protocols assessing channel activation, fast inactivation and availability during repetitive stimulation are used. Results are presented as mean±SEM.
Tonic block of peak current is measured using a step to −10 mV (20 ms) from a holding potential of −120 mV (0.2 Hz). Use-dependent block of peak current is measured during pulse number 300 of a pulse train (−10 mV, 5 ms, 300 pulses, 10 Hz or 25 Hz) from a holding potential of −120 mV. Two sequential pulse train stimulations are averaged to obtain mean current traces for each recording condition, which are then used for offline subtraction and analysis.
For use-dependent studies, cells are stimulated with depolarizing pulse trains (−10 mV, 5 ms, 300 pulses, 10 and 25 Hz) from a holding potential of −120 mV. Currents are then normalized to the peak current recorded in response to the first pulse in each frequency train. For tonic block studies, peak current is evaluated in response to a 20 ms depolarization to −10 mV (0.2 Hz). […] Results are presented as mean±SEM.
A stock solution of 10 mM compound of Formula I is prepared in 0.1 M HCl or DMSO. […] The final DMSO concentration was kept at 0.1% in all solutions. Direct application of the perfusion solution to the clamped cell is achieved using the Perfusion Pencil system (Automate, Berkeley, Calif.). Direct cell perfusion is driven by gravity at a flow rate of 350 μL/min using a 250 micron tip. This system sequesters the clamped cell within a perfusion stream and enables complete solution exchange within 1 second. The clamped cell is perfused continuously starting immediately after establishing the whole-cell configuration. Control currents are measured during control solution perfusion.
Solutions are perfused for three minutes prior to current recordings to allow equilibrium (tonic) drug block. Tonic block of peak currents is measured from this steady-state condition. Three sequential current traces are averaged to obtain a mean current for each recording. The mean current traces are utilized for offline analysis. Use-dependent block of peak current is measured during pulse number 300 of the pulse train, (−10 mV, 5 ms, 300 pulses, 10 Hz) from a holding potential of −120 mV.

[4] = target: T1, wild-type human cardiac sodium channel, hNav1.5; assay: Peak INa screening assay (tonic and use-dependent block); settings: compound at 1 μM
In short: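 Whole-cell automated patch clamp (QPatch) at 23–25°C on HEK293 cells stably expressing hNav1.5 alpha subunit only, with CsF/CsCl pipette solution, pH 7.4. Compound at 1 μM in extracellular solution; bath Na+ could be cut to 20 mM with a nonpermeant cation. Tonic block measured at 0.1 Hz, use-dependent block at 3 Hz.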

[5] = HEK293, % Inhibition at 1 uM, read-out: Late INa*
[6] = HEK293, percent block of late INa, compound at 1 μM, 10 μM Tefluthrin, read-out: Late INa 1 μM
[7] = tonic block of peak INa, 0.1 Hz, read-out: Peak TB 1 μM
[8] = use-dependent block of peak INa, 3 Hz, read-out: Peak UDB 1 μM

T1 sequence (Q14524 whole entry): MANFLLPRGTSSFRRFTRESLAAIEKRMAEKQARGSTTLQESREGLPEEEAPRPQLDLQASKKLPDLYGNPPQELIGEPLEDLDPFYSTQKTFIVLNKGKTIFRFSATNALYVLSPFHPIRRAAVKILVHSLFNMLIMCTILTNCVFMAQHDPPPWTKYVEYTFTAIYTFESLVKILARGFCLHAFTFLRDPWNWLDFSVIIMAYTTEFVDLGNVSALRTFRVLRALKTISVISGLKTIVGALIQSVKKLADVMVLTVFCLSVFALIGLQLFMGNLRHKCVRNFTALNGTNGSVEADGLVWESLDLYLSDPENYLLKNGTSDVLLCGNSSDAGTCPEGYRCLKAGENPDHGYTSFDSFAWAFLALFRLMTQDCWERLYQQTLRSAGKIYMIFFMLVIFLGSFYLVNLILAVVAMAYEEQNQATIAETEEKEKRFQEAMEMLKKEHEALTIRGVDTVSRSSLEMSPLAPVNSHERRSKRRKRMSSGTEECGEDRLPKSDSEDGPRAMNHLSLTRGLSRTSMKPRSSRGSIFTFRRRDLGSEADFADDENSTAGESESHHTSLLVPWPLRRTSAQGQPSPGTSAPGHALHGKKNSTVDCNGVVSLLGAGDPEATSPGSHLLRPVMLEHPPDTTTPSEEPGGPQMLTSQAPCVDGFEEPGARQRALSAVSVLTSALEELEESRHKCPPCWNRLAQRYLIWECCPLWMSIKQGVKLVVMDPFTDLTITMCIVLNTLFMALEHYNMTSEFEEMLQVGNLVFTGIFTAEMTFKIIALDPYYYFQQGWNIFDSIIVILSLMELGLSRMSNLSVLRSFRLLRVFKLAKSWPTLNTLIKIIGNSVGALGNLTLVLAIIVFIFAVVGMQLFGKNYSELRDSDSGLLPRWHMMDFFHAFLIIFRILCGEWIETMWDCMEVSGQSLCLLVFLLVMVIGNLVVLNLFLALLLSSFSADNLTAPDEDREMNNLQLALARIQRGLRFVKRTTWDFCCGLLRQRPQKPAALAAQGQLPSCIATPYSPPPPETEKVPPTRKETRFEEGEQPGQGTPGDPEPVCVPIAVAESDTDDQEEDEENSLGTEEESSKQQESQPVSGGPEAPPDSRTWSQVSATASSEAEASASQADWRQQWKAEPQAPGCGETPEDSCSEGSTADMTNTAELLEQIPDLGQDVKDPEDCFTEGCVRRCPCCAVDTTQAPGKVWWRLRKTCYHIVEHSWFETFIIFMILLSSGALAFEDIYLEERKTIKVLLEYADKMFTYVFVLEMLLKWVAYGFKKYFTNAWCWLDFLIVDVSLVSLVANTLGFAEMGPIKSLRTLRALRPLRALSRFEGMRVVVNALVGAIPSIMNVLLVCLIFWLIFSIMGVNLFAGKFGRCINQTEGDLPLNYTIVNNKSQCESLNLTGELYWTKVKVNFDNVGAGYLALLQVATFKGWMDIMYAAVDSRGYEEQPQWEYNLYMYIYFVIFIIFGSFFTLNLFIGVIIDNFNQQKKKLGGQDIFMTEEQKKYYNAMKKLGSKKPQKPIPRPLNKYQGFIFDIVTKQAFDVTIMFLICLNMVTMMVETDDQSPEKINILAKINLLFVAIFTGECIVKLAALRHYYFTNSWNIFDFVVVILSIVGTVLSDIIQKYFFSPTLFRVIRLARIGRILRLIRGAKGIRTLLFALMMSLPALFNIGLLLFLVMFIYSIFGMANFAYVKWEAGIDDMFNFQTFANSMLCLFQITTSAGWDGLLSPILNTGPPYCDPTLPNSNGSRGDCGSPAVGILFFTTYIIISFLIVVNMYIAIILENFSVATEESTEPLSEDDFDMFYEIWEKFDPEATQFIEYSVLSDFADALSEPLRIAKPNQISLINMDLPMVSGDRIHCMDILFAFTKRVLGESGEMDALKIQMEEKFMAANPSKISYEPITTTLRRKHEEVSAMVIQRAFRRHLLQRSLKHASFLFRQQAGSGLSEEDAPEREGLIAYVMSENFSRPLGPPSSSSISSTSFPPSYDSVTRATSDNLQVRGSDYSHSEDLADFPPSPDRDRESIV

Row | SMILES | inhibition at 1 µM [1, 5] | inhibition at 1 µM [1, 6] | inhibition at 1 µM [2] | inhibition at 1 µM [3] | inhibition at 1 µM [4, 7] | inhibition at 1 µM [4, 8]
1 | O=C1c2cc(-c3ccc(OC(F)(F)F)cc3)ncc2OCCN1Cc1ccccc1 [XII-1, 4-benzyl-7-(4-(trifluoromethoxy)phenyl)-3,4-dihydropyrido[4,3-f][1,4]oxazepin-5(2H)-one] | 53% | 53% | -1% | -4% | 25% | 21%
2 | CCc1ccc(-c2ccc3c(c2)C(=O)N(Cc2ncccn2)CCO3)cc1 [II-91, 7-(4-ethylphenyl)-4-(pyrimidin-2-ylmethyl)-3,4-dihydrobenzo[f][1,4]oxazepin-5(2H)-one] | 54% | 54% | -9% | -3% | 8% | 11%
3 | O=C1c2cc(-c3ccc(OC(F)(F)F)cc3)ccc2OCCN1CC1CC1 [II-10, 4-(cyclopropylmethyl)-7-(4-(trifluoromethoxy)phenyl)-3,4-dihydrobenzo[f][1,4]oxazepin-5(2H)-one] | 43% | 43% | -4% | 9% | 9% | 2%
4 | N#Cc1cccc(CN2CCOc3ccc(-c4ccc(OC(F)(F)F)cc4)cc3C2=O)n1 [II-14, 6-((5-oxo-7-(4-(trifluoromethoxy)phenyl)-2,3-dihydrobenzo[f][1,4]oxazepin-4(5H)-yl)methyl)picolinonitrile] | 47% | 47% | 16% | 19% | 7% | 6%
5 | Cc1cccnc1CN1CCOc2ccc(-c3ccc(OC(F)(F)F)cc3)cc2C1=O [II-75, 4-((3-methylpyridin-2-yl)methyl)-7-(4-(trifluoromethoxy)phenyl)-3,4-dihydrobenzo[f][1,4]oxazepin-5(2H)-one] | 68% | 68% | 35% | 52% | 45% | 59%
6 | Cc1ccnc(CN2CCOc3ccc(-c4ccc(OC(F)(F)F)cc4)cc3C2=O)n1 [II-138, 4-((4-methylpyrimidin-2-yl)methyl)-7-(4-(trifluoromethoxy)phenyl)-3,4-dihydrobenzo[f][1,4]oxazepin-5(2H)-one] | 47% | 47% | 21% | 40% | 16% | 23%
7 | CC1CC=C(c2ccc3c(c2)C(=O)N(Cc2ncccn2)CCO3)CC1 (stereo not shown) [Compound V-5, 7-(4-methylcyclohex-1-enyl)-4-(pyrimidin-2-ylmethyl)-3,4-dihydrobenzo[f][1,4]oxazepin-5(2H)-one] | 49% | 49% | -18% | 3% | 5% | 5%
8 | O=C1c2cc(-c3ccc(OC(F)(F)F)cc3)ccc2OCCN1Cc1ccc2ccccc2n1 [II-7, 4-(quinolin-2-ylmethyl)-7-(4-(trifluoromethoxy)phenyl)-3,4-dihydrobenzo[f][1,4]oxazepin-5(2H)-one] | 34% | 34% | 0% | 13% | – | –
